{
  "source": "patent US4400517A",
  "about": "“Phosphoric esters derived from 1,2,4-triazole having an insecticidal, nematocidal and acaricidal action, and their preparation” (priority 1976, dated 1983)",
  "key": {"Culex pipiens": {"tested_on": "Culex pipiens", "assay": "Biological activity on Culex pipiens larvae (Diptera)", "assay_type": "in vivo", "method": "(4) Biological activity on Culex pipiens (Diptera)\nInto glasses containing an aqueous dispersion of the products under examination (see Tables 4 and 5) there were introduced mosquito larvae of third and fourth age.\nThe mortality percentage of the larvae (glasses containing pure water=0) was determined after 24 hours from treatment."}, "Meloidogyne icognita": {"tested_on": "Meloidogyne icognita", "assay": "Biological activity on Meloidogyne icognita (Nematoda)", "assay_type": "in vivo", "details": "20 ppm; Table 4", "method": "(8) Biological activity on Meloidogyne icognita (Nematoda)\nA 1:1 mixture of field soil and sand, infested with newborne larvae and eggs of Nematoda, were treated, by uniform admixing, with an aqueous dispersion of the products under examination (see Tables 4 and 5). The soil was then distributed into plastic pots, and after 5 days in each pot there were planted 5 small tomato plants about 20 cm high.\nThe results were recorded 21 days after the transplanting.\nThe nematocidal activity was expressed as the percentage reduction of infestation with respect to the witness (small plants transplanted into a non-treated soil, activity=0)."}, "Spodoptera littoralis": {"tested_on": "Spodoptera littoralis", "assay": "Biological activity on Spodoptera littoralis (Lepidoptera)", "assay_type": "in vivo", "method": "(7) Biological activity on Spodoptera littoralis (Lepidoptera)\nCut tobacco leaves were sprinkled with an aqueous dispersion of the products under examination (see Tables 4 and 5).\nAfter drying, the leaves were infested with 5-day old larvae.\nThe percentage of mortality of the larvae was determined after 48 hours from treatment (untreated leaves, mortality=0)."}, "Pieris brassicae": {"tested_on": "Pieris brassicae", "assay": "Biological activity on Pieris brassicae (Lepidoptera)", "assay_type": "in vivo", "details": "48 h, Table 5, read-out: Activity (mortality class), Pieris B.", "method": "(2) Biological activity on Pieris brassicae (Lepidotera)\nCut-off cauliflower leaves were sprinkled with an aqueous dispersion of the products under examination (see TABLE 5).\nAfter drying, the leaves were infested with 5-day old larvae. The percentage of mortality of the larvae (untreated leaves=0) was determined after 48 hours from treatment."}, "[1]": {"tested_on": "Leptinotarsa decemlineata", "assay": "Biological activity on Leptinotarsa decemlineata (Coleoptera)", "assay_type": "in vivo", "method": "(3) Biological activity on Leptinotarsa decemlineata (Coleoptera)\nSmall potato plants grown in pots were infested with 4-day old larvae, and were then sprinkled with an aqueous dispersion of the products under examination (see Tables 4 and 5).\nThe mortality percentage (untreated small plants=0) was determined after 48 hours from treatment."}, "Hilemyia brassicae": {"tested_on": "Hilemyia brassicae", "assay": "Biological activity on Hilemyia brassicae (Diptera)", "assay_type": "in vivo", "details": "Table 4", "method": "(9) Biological activity on Hilemyia brassicae (Diptera)\nSamples of soil were treated by uniform mixing with an aqueous dispersion of the products under examination (see Tables 4 and 5). The soil was then divided into two pots and in each of these 4 small radish plants were transplanted. The plants were subsequently infected by putting to the soil 50 Diptera eggs in the middle of the surface of the pots.\nThe results were recorded 10 days after treatment by extracting the plants from the soil and by counting the number of larvae present on the roots and on the surrounding soil.\nThe insecticidal activity was expressed as percentage of reduction of the infestation in comparison with the witness plants (plants transplanted into untreated soil, activity=0)."}, "[2]": {"tested_on": "orthoptera, lepidoptera, coleoptera, diptera, nematoda and acari", "assay": "Comparison of the insecticidal, acaricidal and nematocidal activities", "assay_type": "in vivo", "details": "M 8174 vs M 8172 (Table 4); Tables 4 and 5", "description": "Of this material (M 8172) we have estimated the effects on various arthropods at decreasing doses, together with effects shown by a representative compound of the class described by us in this invention (M 8174)."}, "Tetranychus urticae": {"tested_on": "Tetranychus urticae", "assay": "Biological activity on adults of Tetranychus urticae (Acari)", "assay_type": "in vivo", "method": "(5) Biological activity on adults of Tetranychus urticae (Acari)\nDiscs of bean leaves were infested with adult acari and then sprinkled with an aqueous dispersion of the products under examination (see Tables 4 and 5).\nThe mortality percentage was determined after 24 hours from treatment (untreated leaf discs, mortality=0)."}, "[3]": {"assay": "Toxicity on albino rats by oral administration", "details": "rat, in vivo"}, "Blatta orientalis": {"tested_on": "Blatta orientalis", "assay": "Biological activity on Blatta orientalis (Ortoptera)", "assay_type": "in vivo", "details": "for % ge of activity, Blatta o.: Table 4, 2880 min", "how_it_was_run": "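Ten neanides aged 80-100 days were exposed to glass crystallizer surfaces coated with acetone solution of compound for 24 h, then moved to untreated containers and fed. Mortality (untreated = 0) was scored 48 h after treatment began.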"}},
  "note": "Read-outs that look alike come from different tables or passages of the source.",
  "data": [
    {"smiles": "CCOP(=S)(OCC)Oc1nc(C=C(Cl)Cl)nn1C", "note": "[M 8174]", "values": [
      {"measurement": "mortality at 0.02 ppm", "setting": "Culex pipiens; 24 h, 0,02 ppm, Table 4, read-out: % ge of activity, Culex p.", "value": 100, "unit": "%"},
      {"measurement": "mortality at 0.2 ppm", "setting": "Culex pipiens; 24 h, 0,2 ppm, Table 4, read-out: % ge of activity, Culex p.", "value": 100, "unit": "%"},
      {"measurement": "mortality at 0.02 ppm", "setting": "Culex pipiens; 24 h, 0.02 ppm, Table 5, read-out: Activity (mortality class), Culex P. (larvae)", "value": 100, "unit": "%"},
      {"measurement": "mortality at 2 ppm", "setting": "Culex pipiens; 24 h, 2 ppm, Table 5, read-out: Activity (mortality class), Culex P. (larvae)", "value": 100, "unit": "%"},
      {"measurement": "% ge of activity, Meloidogyne i.", "setting": "Meloidogyne icognita", "value": 100, "unit": "%"},
      {"measurement": "mortality at 0.01 %", "setting": "Spodoptera littoralis; 48 h, 0,1%o, Table 4, read-out: % ge of activity, Spodoptera l.", "value": 100, "unit": "%"},
      {"measurement": "mortality at 0.005 %", "setting": "Spodoptera littoralis; 48 h, 0,05%o, Table 4, read-out: % ge of activity, Spodoptera l.", "value": 90, "unit": "%"},
      {"measurement": "mortality at 0.005 %", "setting": "Spodoptera littoralis; 48 h, 0.05%o, Table 5, read-out: Activity (mortality class), Spodoptera L.", "value": 100, "unit": "%"},
      {"measurement": "mortality at 0.1 %", "setting": "Spodoptera littoralis; 48 h, 1%o, Table 5, read-out: Activity (mortality class), Spodoptera L.", "value": 100, "unit": "%"},
      {"measurement": "mortality at 0.001 %", "setting": "Pieris brassicae; 0.01%o", "value": 100, "unit": "%"},
      {"measurement": "mortality at 0.1 %", "setting": "Pieris brassicae; 1%o", "value": 100, "unit": "%"},
      {"measurement": "mortality at 0.01 %", "setting": "[1]; 48 h, 0,1%o, Table 4, read-out: % ge of activity, Leptinotarsa d.", "value": 100, "unit": "%"},
      {"measurement": "mortality at 0.005 %", "setting": "[1]; 48 h, 0,05%o, Table 4, read-out: % ge of activity, Leptinotarsa d.", "value": 100, "unit": "%"},
      {"measurement": "mortality at 0.005 %", "setting": "[1]; 48 h, 0.05%o, Table 5, read-out: Activity (mortality class), Leptinotarsa D.", "value": 100, "unit": "%"},
      {"measurement": "mortality at 0.1 %", "setting": "[1]; 48 h, 1%o, Table 5, read-out: Activity (mortality class), Leptinotarsa D.", "value": 100, "unit": "%"},
      {"measurement": "% ge of activity, Hylemyia b.", "setting": "Hilemyia brassicae; 2 ppm", "value": 100, "unit": "%"},
      {"measurement": "% ge of activity, Hylemyia b.", "setting": "Hilemyia brassicae; 10 ppm", "value": 100, "unit": "%"},
      {"measurement": "activity in words", "setting": "[2]", "value": "significantly better activity"},
      {"measurement": "mortality at 0.001 %", "setting": "Tetranychus urticae; 24 h, 0,01%o, Table 4, read-out: % ge of activity, Tetranycus u. (ad.)", "value": 100, "unit": "%"},
      {"measurement": "mortality at 0.001 %", "setting": "Tetranychus urticae; 24 h, 0.01%o, Table 5, read-out: Activity (mortality class), Tetranychus U. (adults)", "value": 100, "unit": "%"},
      {"measurement": "mortality at 0.1 %", "setting": "Tetranychus urticae; 24 h, 1%o, Table 5, read-out: Activity (mortality class), Tetranychus U. (adults)", "value": 100, "unit": "%"},
      {"measurement": "mortality at 0.0005 %", "setting": "Tetranychus urticae; 24 h, 0,005%o, Table 4, read-out: % ge of activity, Tetranycus u. (ad.)", "value": 100, "unit": "%"},
      {"measurement": "LD50", "setting": "[3]", "value": 1600, "unit": "mg/kg"},
      {"measurement": "% ge of activity, Blatta o.", "setting": "Blatta orientalis; 0,01 g/m^2", "value": 100, "unit": "%"},
      {"measurement": "% ge of activity, Blatta o.", "setting": "Blatta orientalis; 0,1 g/m^2", "value": 100, "unit": "%"},
      {"measurement": "mortality at 0.01 g/m2", "setting": "Blatta orientalis; Blatta orientalis, 48 h, 0,01 g/m^2, Table 5, read-out: Activity (mortality class), Blatta O.", "value": 100, "unit": "%"},
      {"measurement": "mortality at 1 g/m2", "setting": "Blatta orientalis; Blatta orientalis, 48 h, 1 g/m^2, Table 5, read-out: Activity (mortality class), Blatta O.", "value": 100, "unit": "%"}
    ]}
  ]
}
